From patent US20230277508A1, “USE OF COMPOUND AS CYP2E1 INHIBITOR” (SHANGHAI LING XI BIOTECHNOLOGY DEVELOPMENT CO., LTD., priority 2020, published 2023)

Columns and labels:
[1] = tested on: M2 microglial cells; experiment: Inflammatory factor and lipid metabolism gene levels in co-cultivated glial cells (qPCR); assay type: cell-based, mouse; settings: SMI0 50 μmol/L vs M2 microglial cell co-cultivation group
Method: (§1) Experimental method: 10 1-2 d newborn C57BL/6 WT mice and 6 CYP2E1^−/− mice were taken, primary microglial cells and astrocytes were collected and inoculated into 6-well plates, and 24 h later, culture supernatants were taken and co-cultivated with glioma cells. Experimental groups: control group; M2 model group; high-concentration, medium-concentration, and low-concentration SMI0 (50 μmol/L, 12.5 μmol/L, and 3.1 μmol/L) groups; and CYP2E1 gene-knockout group. 24 h later, supernatants were discarded; and […] and IL-13 each were added at 20 ng/mL to induce the transformation of microglial cells into the M2 type in the M2 model group and the high-concentration, medium-concentration, and low-concentration SMI0 groups, and different concentrations of SMI0 (50 μmol/L, 12.5 μmol/L, and 3.1 μmol/L) were also added in the intervention groups. The proliferation of glioma cells was determined by a CCK8 method, and an apoptosis proportion was determined by an Annexin V-FITC-PI apoptosis staining kit.
Experimental method: Astrocytes in the co-cultivation group were collected, RNA was extracted and reverse-transcribed into cDNA, and the changes of inflammatory factor and cholesterol metabolism-associated genes were detected by qPCR.

[2] = tested on: A549 lung cancer cells; experiment: Direct effect on proliferation of A549 lung cancer cells (CCK8); assay type: cell-based; settings: up to 100 μmol/L, 24 h
Method: (§2) Experimental method: Lewis lung cancer cells and A549 lung cancer cells in a logarithmic growth phase each were selected and inoculated into a 96-well plate at a concentration of 1*10^5 cells/mL, then 100 μL of a basic medium including SMI0 at different concentrations (0 μmol/L, 0.16 μmol/L, 0.8 μmol/L, 4 μmol/L, 20 μmol/L, and 100 μmol/L) was added to each well, and 24 h later, 10 μL of a CCK8 reagent was added to each well; and the cells were further cultivated for 2 h, and an absorbance OD value of each well was determined at 450 nm by a microplate reader. 3 replicates were set for each well, and an average was taken. The proliferation activity was calculated based on the OD value.

[3] = tested on: U251 glioma cells; experiment: Direct effect on U251 glioma cells in vitro (CCK8); assay type: cell-based, human; settings: up to 128 μmol/L or 200 μmol/L
Method: as §2, with “GL261 murine glioma” for “Lewis lung cancer”, “U251 human glioma” for “A549 lung cancer”, “5*10^5” for “1*10^5”, “100 μL of a cell suspension was added to each well, and 12 h later, a medium was discarded; 200” for “100”, “([…])” for “(0 μmol/L, 0.16 μmol/L, 0.8 μmol/L, 4 μmol/L, 20 μmol/L, and 100 μmol/L)”

[4] = tested on: LPS-induced pulmonary fibrosis in mice; experiment: LPS-induced mouse pulmonary fibrosis model; assay type: in vivo, C57BL/6N mouse
Method: Experimental method: A C57BL/6N mouse pulmonary fibrosis model was established through intratracheal instillation with 8 mg/kg LPS. An SMI0 intervention group was divided into a low-dose group and a high-dose group, which were intragastrically administered with the compound SMI0 respectively at 30 mg/kg and 90 mg/kg every day from three days before modeling to the end of the 28-d modeling (control group, n=8; model group, n=8; and SMI0 compound high-dose group, n=8). At the end of the experiment, a body weight of mice in each group was recorded, blood was collected from the orbit, the mice were sacrificed, and lung tissues were collected and weighed. The left lungs were fixed in 4% formalin and subjected to HE and Masson staining, and the lung tissues were subjected to fibrosis grading and fibrosis and histological scoring to reflect a severity of pulmonary fibrosis.
Experimental method: An ammonium molybdate method and a microplate method were used to treat a mouse lung tissue homogenate, and changes of oxidative stress indexes CAT and GSH in the lung tissue of mice in each group were detected. Expression levels of […] and α-SMA in the mouse lung tissue were evaluated through immunohistochemical staining, and a positive area percentage was counted by Image-Pro Plus software. Expression levels of the epithelial cell marker E-cadherin, the apoptosis-associated protein Bax, and the anti-apoptotic protein Bcl-2 were detected by WB.

[5] = tested on: CT26 cell lung metastasis; experiment: Lung metastasis model, tail vein injection of CRC cell CT26; assay type: in vivo, Balb/C mouse; settings: SMI0 30 mg/kg, 14 days
[6] = tested on: LPS-induced sepsis in mice; experiment: LPS-induced mouse sepsis model; assay type: in vivo; settings: vs model group
Method: Mice: A mouse sepsis model was constructed through single intraperitoneal injection of LPS (15 mg/kg). 30 min before LPS administration, mice in the model group were administered with NS (0.5 mL/kg, i.g.), mice in the positive control group were administered with celecoxib (5 mg/kg, i.g.), and mice in the CYP2E1 inhibition group were administered with the compound SMI0 (90 mg/kg, i.g.). A body temperature of each mouse was measured and recorded at 6 h, 12 h, and 24 h after LPS administration, and the body temperature was measured […] in total throughout the experimental process. The animals were sacrificed at 24 h, blood samples were collected, and renal and cardiac function-associated indexes were determined (control group, n=8 mice; model group, n=8 mice; celecoxib group, n=8 mice; and SMI0 compound group, n=10 mice).

[7] = tested on: GL261 cells / astrocytes; experiment: GL261 cells co-cultivated with M2 astrocytes; assay type: cell-based, mouse; settings: SMI0 50 μmol/L vs M2 astrocyte co-cultivation group, P<0.05
Method: as §1

[8] = tested on: ID-8 cells; experiment: In vitro inhibition experiment on ID-8 cells; assay type: cell-based, murine; settings: 0 μM to 320 μM, 48 h
[9] = SMI0 intervention group vs model group, P<0.01

Question: How did the “level of IL-4” value [1] turn out when `CC(=O)c1scnc1C` [SMI0] was run?
Answer: significantly reduced

Question: And the “level of IL-10” value [1]?
Answer: significantly reduced

Question: And the “level of IL-13” value [1]?
Answer: significantly reduced

Question: And the “level of the lipid metabolism-associated gene PPAR-α” value [1]?
Answer: significantly increased

Question: What about the “effect on the proliferation of A549 lung cancer cells” value [2] of the same molecule?
Answer: no significant inhibitory effect

Question: And the “effect on the proliferation of U251 glioma cells” value [3]?
Answer: no significant inhibitory effect

Question: And the lung index ([4]; SMI0 intervention group (30, 90 mg/kg ig daily, 28 d) vs model group)?
Answer: significantly reduced

Question: And the “immunostaining-positive area percentage of TGF-β 1” value [4, 9]?
Answer: significantly reduced

Question: What about the “immunostaining-positive area percentage of α-SMA” value [4, 9] of the same molecule?
Answer: significantly reduced

Question: What about the “oxidative stress index CAT level in lung tissue” value [4, 9] of the same molecule?
Answer: significantly increased

Question: What about the “pathological inflammatory cell infiltration” value ([4]; SMI0 intervention group, 28 d) of the same molecule?
Answer: no obvious pathological inflammatory cell infiltration

Question: And the Bcl-2 level ([4]; WB, SMI0 intervention group vs model group, P<0.001)?
Answer: significantly increased

Question: What about the Bax level ([4]; WB, SMI0 intervention group vs model group, P<0.01) of the same molecule?
Answer: significantly reduced

Question: And the “epithelial cell marker E-cadherin level” value ([4]; WB, SMI0 intervention group vs model group, P<0.05)?
Answer: significantly increased

Question: And the lung weight ([5]; vs model group)?
Answer: significantly reduced

Question: And the number of nodules ([5]; vs model group)?
Answer: significantly reduced

Question: What about the “tumor proliferation inhibition rate” value ([5]; as high as) of the same molecule?
Answer: 66.7%

Question: What about the “decrease in body temperature in the LPS-induced sepsis mouse model” value ([6]; SMI0 90 mg/kg ig 30 min before LPS 15 mg/kg ip, 6 h, 12 h, 24 h) of the same molecule?
Answer: avoided

Question: What about the “levels of renal and cardiac function-associated indexes (urea nitrogen, creatinine, CK, LDH)” value ([6]; serum at 24 h, SMI0 90 mg/kg ig) of the same molecule?
Answer: significantly reduced

Question: And the “proliferation activity of GL261 cells” value [7]?
Answer: significantly weakened

Question: And the “inhibitory effect on ID-8” value [8]?
Answer: no significant inhibitory effect
